Source: article PMC10763615, “Identification and engineering of potent cyclic peptides with selective or promiscuous binding through biochemical profiling and bioinformatic data analysis” (RSC Chemical Biology, 2023)
Positions of bridges follow the written chain, without caps; N, C: chain ends. Residues, ends and D or L forms follow the SMILES beside them.

Key:
Assay type in all cases: binding
FGF-R1C ECD = target: T1, FGF-R1C ECD (Homo sapiens, UniProt P11362); assay: biochemical; parameters: DNA constructs for the extracellular domain (ECD) of human FGF-; HPC4 (C); made in house; host or cells: HEK 293-6E
T1 sequence (P11362 22-376 limits assumed): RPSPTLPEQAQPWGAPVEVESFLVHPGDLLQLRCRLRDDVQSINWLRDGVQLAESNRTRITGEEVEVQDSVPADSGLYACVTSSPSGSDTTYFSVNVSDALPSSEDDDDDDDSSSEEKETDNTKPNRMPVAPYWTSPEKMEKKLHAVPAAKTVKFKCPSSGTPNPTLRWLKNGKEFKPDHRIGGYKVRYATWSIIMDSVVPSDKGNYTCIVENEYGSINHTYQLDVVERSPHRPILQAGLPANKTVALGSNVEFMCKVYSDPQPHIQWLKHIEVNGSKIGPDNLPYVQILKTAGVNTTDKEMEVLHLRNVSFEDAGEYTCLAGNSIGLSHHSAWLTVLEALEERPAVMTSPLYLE
Method: (§1) KD affinity binding measurements were obtained by biolayer interferometry (BLI) instruments (Fortebio Octet HTX, or Sartorius Octet RH16 using either 8 or 16 channel mode.
(§2) For single concentration binding experiments, 50 μM peptide stocks in folding buffer were diluted 1:50 in mRNA display selection buffer (PBS pH7.4 supplemented with 0.05% Tween-20 and 0.01% BSA) in either a 96 well black plate, or a 384 well tilted bottom microplate (ForteBio). Biotinylated FGF-R protein was loaded onto Streptavidin-functionalised biosensors (ForteBio) and immersed into ~1 μM peptide to obtain association kinetics curves. Dissociation kinetics curves were obtained by subsequent immersion of ligand-associated loaded sensors into a 1:50 dilution of folding buffer in mRNA display selection buffer. Fitted KD data was adjusted for concentration as determined by UPLC-CAD.
(§3) For accurate multi-concentration KD determination, dilution series of each peptide were made, and association and dissociation kinetics curves were obtained as above for each concentration to fit a multi-point KD binding model. Data collection and analysis was performed using the Octet Instrument Control […]
(§4) concentration assay kinetics curves shown in supplementary Figure S 19-24.

FGF-R3C ECD = target: T2, FGF-R3C ECD (Homo sapiens, UniProt P22607); assay: biochemical; parameters: DNA constructs for the extracellular domain (ECD) of human FGF-; HPC4 (C); made in house; host or cells: HEK 293-6E
T2 sequence (P22607 23-375 limits assumed): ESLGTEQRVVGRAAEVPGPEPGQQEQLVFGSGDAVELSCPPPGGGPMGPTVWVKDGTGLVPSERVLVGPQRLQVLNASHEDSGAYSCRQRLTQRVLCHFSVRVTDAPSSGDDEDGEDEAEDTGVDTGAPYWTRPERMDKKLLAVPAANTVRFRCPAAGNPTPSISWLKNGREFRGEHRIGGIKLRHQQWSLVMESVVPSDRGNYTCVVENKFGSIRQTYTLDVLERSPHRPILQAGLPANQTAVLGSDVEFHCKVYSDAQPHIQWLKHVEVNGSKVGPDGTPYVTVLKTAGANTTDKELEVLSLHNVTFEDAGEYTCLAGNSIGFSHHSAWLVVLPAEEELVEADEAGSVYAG
Method: as §1, §2, §3, §4

FGF-R4 ECD = target: T3, FGF-R4 ECD (Homo sapiens, UniProt P22455); assay: single concentration BLI of crude peptides; conditions: crude T18 selection 1 (1:1:1) peptides, single concentration BLI (Table S4); read-out: KD (4)
T3 construct: DNA constructs for the extracellular domain (ECD) of human FGF-; HPC4 (C); made in house; host or cells: HEK 293-6E
T3 sequence (P22455 22-369 limits assumed): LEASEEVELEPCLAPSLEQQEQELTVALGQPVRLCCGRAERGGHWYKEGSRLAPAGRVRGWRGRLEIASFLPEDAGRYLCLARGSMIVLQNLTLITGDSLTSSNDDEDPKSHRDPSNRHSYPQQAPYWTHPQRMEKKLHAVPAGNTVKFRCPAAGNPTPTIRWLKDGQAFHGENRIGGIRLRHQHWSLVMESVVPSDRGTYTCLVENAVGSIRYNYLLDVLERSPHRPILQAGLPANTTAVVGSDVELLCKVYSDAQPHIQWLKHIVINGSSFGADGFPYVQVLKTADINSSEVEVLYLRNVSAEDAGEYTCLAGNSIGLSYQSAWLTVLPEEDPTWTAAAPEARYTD
Method: as §1
as §2, with “UPLC-CAD. […]” for “UPLC-CAD.”

SMILES | Kd (FGF-R1C ECD) | Kd (FGF-R3C ECD) | Kd (FGF-R4 ECD)
CSCC[C@H](NC(C)=O)C(=O)N[C@H]1CSSC[C@@H](C(=O)NCC(=O)N[C@@H](CO)C(=O)NCC(=O)N[C@@H](CO)C(=O)N[C@@H](CCC(=O)O)C(=O)N[C@@H](CCC(=O)O)C(=O)NCC(=O)N[C@@H](CO)C(=O)NCC(=O)N[C@@H](CO)C(=O)N[C@@H](CC(=O)O)C(=O)N[C@@H](Cc2ccc(O)cc2)C(=O)N[C@@H](CCCCN)C(=O)N[C@@H](CC(=O)O)C(=O)N[C@@H](CC(=O)O)C(=O)N[C@@H](CC(=O)O)C(=O)N[C@@H](CC(=O)O)C(=O)N[C@@H](CCCCN)C(N)=O)NC(=O)[C@H](Cc2ccccc2)NC(=O)[C@H](CCCCN)NC(=O)CNC(=O)[C@H](CCCCN)NC(=O)[C@H](Cc2c[nH]c3ccccc23)NC(=O)[C@H](CC(C)C)NC(=O)[C@H](CC(C)C)NC(=O)[C@H](Cc2ccccc2)NC(=O)[C@H](C)NC(=O)[C@H](CCCCN)NC(=O)[C@H](C)NC1=O (Ac-MCAKAFLLWKGKFCGSGSEEGSGSDYKDDDDK-NH2; disulfide 2-14) | > 10 µM | > 10 µM | > 10 µM
CSCC[C@H](NC(C)=O)C(=O)N[C@H]1CSSC[C@@H](C(=O)NCC(=O)N[C@@H](CO)C(=O)NCC(=O)N[C@@H](CO)C(=O)N[C@@H](CCC(=O)O)C(=O)N[C@@H](CCC(=O)O)C(=O)NCC(=O)N[C@@H](CO)C(=O)NCC(=O)N[C@@H](CO)C(=O)N[C@@H](CC(=O)O)C(=O)N[C@@H](Cc2ccc(O)cc2)C(=O)N[C@@H](CCCCN)C(=O)N[C@@H](CC(=O)O)C(=O)N[C@@H](CC(=O)O)C(=O)N[C@@H](CC(=O)O)C(=O)N[C@@H](CC(=O)O)C(=O)N[C@@H](CCCCN)C(N)=O)NC(=O)[C@H](CCCNC(=N)N)NC(=O)[C@H](CO)NC(=O)[C@H](Cc2c[nH]cn2)NC(=O)[C@H](CCCCN)NC(=O)[C@H](CC(C)C)NC(=O)[C@H](Cc2c[nH]c3ccccc23)NC(=O)[C@H](CC(C)C)NC(=O)[C@H](CCCCN)NC(=O)[C@H](Cc2ccc(O)cc2)NC(=O)[C@H](Cc2ccc(O)cc2)NC(=O)[C@H](C(C)C)NC(=O)[C@H](C)NC1=O (Ac-MCAVYYKLWLKHSRCGSGSEEGSGSDYKDDDDK-NH2; disulfide 2-15) | > 10 µM | – | 0.007 µM
CC[C@H](C)[C@@H]1NC(=O)[C@H](Cc2c[nH]cn2)NC(=O)[C@@H](NC(=O)[C@H](CCSC)NC(C)=O)CSSC[C@@H](C(=O)NCC(=O)N[C@@H](CO)C(=O)NCC(=O)N[C@@H](CO)C(=O)N[C@@H](CC(=O)O)C(=O)N[C@@H](Cc2ccc(O)cc2)C(=O)N[C@@H](CCCCN)C(=O)N[C@@H](CC(=O)O)C(=O)N[C@@H](CC(=O)O)C(=O)N[C@@H](CC(=O)O)C(=O)N[C@@H](CC(=O)O)C(=O)N[C@@H](CCCCN)C(N)=O)NC(=O)[C@H](C(C)C)NC(=O)[C@H](Cc2ccc(O)cc2)NC(=O)[C@H](Cc2c[nH]cn2)NC(=O)[C@H](Cc2ccccc2)NC(=O)[C@H](CCC(N)=O)NC(=O)[C@H](CC(N)=O)NC(=O)[C@H](CC(N)=O)NC(=O)[C@H](Cc2ccccc2)NC(=O)[C@H](Cc2ccc(O)cc2)NC(=O)[C@H](Cc2c[nH]c3ccccc23)NC1=O (Ac-MCHIWYFNNQFHYVCGSGSDYKDDDDK-NH2; disulfide 2-15) | > 10 µM | – | 0.006 µM
CC[C@H](C)[C@@H]1NC(=O)[C@H](Cc2c[nH]cn2)NC(=O)[C@H](CCCNC(=N)N)NC(=O)[C@H](CCCCN)NC(=O)[C@@H](NC(=O)[C@H](CCSC)NC(C)=O)CSSC[C@@H](C(=O)NCC(=O)N[C@@H](CO)C(=O)NCC(=O)N[C@@H](CO)C(=O)N[C@@H](CCC(=O)O)C(=O)N[C@@H](CCC(=O)O)C(=O)NCC(=O)N[C@@H](CO)C(=O)NCC(=O)N[C@@H](CO)C(=O)N[C@@H](CC(=O)O)C(=O)N[C@@H](Cc2ccc(O)cc2)C(=O)N[C@@H](CCCCN)C(=O)N[C@@H](CC(=O)O)C(=O)N[C@@H](CC(=O)O)C(=O)N[C@@H](CC(=O)O)C(=O)N[C@@H](CC(=O)O)C(=O)N[C@@H](CCCCN)C(N)=O)NC(=O)[C@H](C(C)C)NC(=O)[C@H](Cc2ccc(O)cc2)NC(=O)[C@H](CC(C)C)NC(=O)[C@H](CCC(N)=O)NC(=O)[C@H](Cc2c[nH]c3ccccc23)NC(=O)[C@H](Cc2ccc(O)cc2)NC(=O)[C@H](CCCNC(=N)N)NC1=O (Ac-MCKRHIRYWQLYVCGSGSEEGSGSDYKDDDDK-NH2; disulfide 2-14) | 0.265 µM | 0.838 µM | –
CC[C@H](C)[C@@H]1NC(=O)[C@H](CCC(=O)O)NC(=O)[C@H](CCCNC(=N)N)NC(=O)[C@@H](NC(=O)[C@H](CCSC)NC(C)=O)CSSC[C@@H](C(=O)NCC(=O)N[C@@H](CO)C(=O)NCC(=O)N[C@@H](CO)C(=O)N[C@@H](CC(=O)O)C(=O)N[C@@H](Cc2ccc(O)cc2)C(=O)N[C@@H](CCCCN)C(=O)N[C@@H](CC(=O)O)C(=O)N[C@@H](CC(=O)O)C(=O)N[C@@H](CC(=O)O)C(=O)N[C@@H](CC(=O)O)C(=O)N[C@@H](CCCCN)C(N)=O)NC(=O)[C@H](Cc2ccccc2)NC(=O)[C@H](C)NC(=O)[C@H](CCCNC(=N)N)NC(=O)[C@H](Cc2ccc(O)cc2)NC(=O)[C@H](CC(C)C)NC(=O)[C@H](CCC(N)=O)NC(=O)[C@H](Cc2c[nH]c3ccccc23)NC(=O)[C@H](Cc2ccc(O)cc2)NC(=O)[C@H](CCCNC(=N)N)NC1=O (Ac-MCREIRYWQLYRAFCGSGSDYKDDDDK-NH2; disulfide 2-15) | > 10 µM | > 10 µM | –
CC[C@H](C)[C@@H]1NC(=O)[C@H](CCC(=O)O)NC(=O)[C@H](Cc2ccc(O)cc2)NC(=O)[C@@H](NC(=O)[C@H](CCSC)NC(C)=O)CSSC[C@@H](C(=O)NCC(=O)N[C@@H](CO)C(=O)NCC(=O)N[C@@H](CO)C(=O)N[C@@H](CC(=O)O)C(=O)N[C@@H](Cc2ccc(O)cc2)C(=O)N[C@@H](CCCCN)C(=O)N[C@@H](CC(=O)O)C(=O)N[C@@H](CC(=O)O)C(=O)N[C@@H](CC(=O)O)C(=O)N[C@@H](CC(=O)O)C(=O)N[C@@H](CCCCN)C(N)=O)NC(=O)[C@H](C(C)C)NC(=O)[C@H](CCCNC(=N)N)NC(=O)[C@H](CCC(N)=O)NC(=O)[C@H](CC(C)C)NC(=O)[C@H](CCCCN)NC(=O)[C@H](Cc2ccc(O)cc2)NC(=O)[C@H](Cc2c[nH]c3ccccc23)NC(=O)[C@H]([C@@H](C)CC)NC1=O (Ac-MCYEIIWYKLQRVCGSGSDYKDDDDK-NH2; disulfide 2-14) | > 10 µM | > 10 µM | –
CC[C@H](C)[C@@H]1NC(=O)CNC(=O)[C@H]([C@@H](C)O)NC(=O)[C@H](CO)NC(=O)[C@H]([C@@H](C)CC)NC(=O)[C@H](CC(N)=O)NC(=O)[C@H](CCCCN)NC(=O)[C@H](Cc2ccc(O)cc2)NC(=O)[C@@H](NC(=O)[C@H](CCSC)NC(C)=O)CSSC[C@@H](C(=O)NCC(=O)N[C@@H](CO)C(=O)NCC(=O)N[C@@H](CO)C(=O)N[C@@H](CC(=O)O)C(=O)N[C@@H](Cc2ccc(O)cc2)C(=O)N[C@@H](CCCCN)C(=O)N[C@@H](CC(=O)O)C(=O)N[C@@H](CC(=O)O)C(=O)N[C@@H](CC(=O)O)C(=O)N[C@@H](CC(=O)O)C(=O)N[C@@H](CCCCN)C(N)=O)NC(=O)[C@H](Cc2ccc(O)cc2)NC(=O)[C@H](CC(C)C)NC(=O)[C@H](Cc2ccccc2)NC1=O (Ac-MCYKNISTGIFLYCGSGSDYKDDDDK-NH2; disulfide 2-14) | > 10 µM | > 10 µM | –
